Where a name gives a salt, the structure may show the parent alone.
Assay: Topical application of cromolyn sodium in OCEAN at the affected site in twenty adult subjects with atopic eczema
Format: in vivo, human
Conditions: 300 mg/45 ml OCEAN (0.67%), applied every 4 to 6 hours at the affected site, after two weeks
Method: A group of twenty adult subjects suffering from atopic eczema were asked to apply cromolyn sodium (at a concentration of 300 mg/45 ml OCEAN® giving a concentration of 0.67%) every 4 to 6 hours at the affected site, and instructed to rub the solution gently into the lesion.

## O=C(O)c1cc(=O)c2c(OCC(O)COc3cccc4oc(C(=O)O)cc(=O)c34)cccc2o1 [cromolyn sodium, disodium salt of 1,3-bis-(2-carboxy-chromone-5″yloxy)2-hydroxy propane]
  subjects who experienced relief from the symptoms: 19 of the 20

— patent US6596284B1, “Treating eczema with a combination of isotonic saline ocean® and nasal mast cell stabilizers” (priority 2002, dated 2003)
